Experimental data from paper doi:10.1101/2021.01.09.426030v4 (biorxiv, 2022).

What was measured:
Test in all cases: cells
Design in all cases: species or system GBM PDCLs
Settings in all cases: 72 h, read-out: Erlotinib (IC50 µM)
BT179 = tested on: BT179
BT112 = tested on: BT112
BT333 = tested on: BT333

`C#Cc1cccc(Nc2ncnc3cc(OCCOC)c(OCCOC)cc23)c1` [erlotinib] gave an IC50 (BT179) of 11.7 µM, an IC50 (BT112) of 18.5 µM and an IC50 (BT333) greater than 20 µM.
